Test results published in US20150174144A1, “TETRACYCLINE COMPOUNDS FOR TREATING NEURODEGENERATIVE DISORDERS” (PARATEK PHARMACEUTICALS, INC., priority 2012, published 2015).
“And” between values parts separate entries of the source, which are not always exact repeats. Equal values may be shown once. Read-outs that look alike come from different tables or passages of the source. Marks after values point to notes of the source that are not given here.

How the values were obtained:
[1] = tested on: cuprizone-induced demyelination; assay: Mouse model of cuprizone-induced demyelination; format: in vivo, C57BL/6 female mice
Protocol: Compound 1 was tested in the mouse model of cuprizone-induced demyelination to determine the protective effects of Compound 1. The general protocol for cuprizone model demyelination is as follows:
C57BL/6 female mice at 7-8 weeks old were fed a cuprizone diet (7012, 0.2% cuprizone mixed in standard pellet rodent chow purchased from Harlan Teklad, Indianapolis, Ind., USA) for 5 weeks. The cuprizone food was changed every two days and given ad libitum along with water. An additional group of mice was fed normal chow for 5 weeks to serve as a no cuprizone control.
Animals were dosed intraperitoneally (i.p.) once daily based on body weight with Compound 1 (25 mg/kg, 10 mL/kg in saline), minocycline positive control (25 mg/kg, 10 mL/kg in saline) or saline sham starting on the day of cuprizone diet initiation (day 0) and continuing until day of harvest.
At 3, 4, and 5 weeks of cuprizone feeding, ten mice from each group were euthanized by CO2 asphyxiation and decapitation and the brains were harvested and fixed in 10% buffered neutral formalin.
Postfixed brains were paraffin embedded and 8-12 μm serial sections of the brain between the septostriatal and rostral diencephalon were prepared for luxol fast blue periodic acid-Schiff base (LFB-PAS) staining (demyelination). Both medial and lateral demyelination of the corpus callosum was determined.
Demyelination scores for the medial corpus callosum ranged from 0 to 4 (0=fully myelinated, 1=<⅓ demyelination in the center of the medial corpus callosum, 2=<⅔ demyelination in the center of the corpus callosum, 3=no myelin in the center of corpus callosum and 4=demyelination extending to the arch of the medial corpus callosum). Demyelination in the lateral corpus callosum was scored on weeks 4 and 5 and ranged from 0 to 3 (0=normal myelination and 3=complete demyelination). Demyelination was scored 2-3 times for at least 2 brain sections.
Axon loss in the medial corpus callosum was determined on additional serial sections of brain using Bielschowsky silver staining. Axon loss in the medial corpus callosum was scored from 0-4 (0=normal number of axons to 4=complete axon loss) at 3, 4 and 5 weeks. Slides were scored by two technicians who were blinded to the treatment groups.

[2] = tested on: hippocampal neurons from Fmr1 KO mice; assay: Dendritic spine development in hippocampal primary cultures; format: cell-based, mouse; settings: FX hippocampal primary cultures, 20 μM, 17 hour treatment, 18 DIV
Protocol: The purpose of this study was to investigate the direct effects of tetracycline compounds, such as minocycline and Compound 1, on dendritic spine development in the cell derived from the mouse model of Fragile X Syndrome (FXS) and their wild-type litter mate control mouse embryos.
The compartmentalized cell culture was used in the experiments. Neuronal primary cultures of the hippocampus at embryonic day 16 (E16) were prepared from Fmr1 KO and WT litter mate control mouse embryos, and three independent cultures were used for the analysis. The in vitro system with […] was used to monitor dendritic spine morphogenesis during a time-course of culture, and immunostaining with synaptophysin was used to distinguish presynaptic boutons. The dendritic spines were usually formed between 7 and 14 days in vitro (DIV). By 14 DIV most dendiritic protrusions were spines; however, their maturation continued until 21 DIV. The effects of tetracycline compounds were evaluated at 18 DIV. Confocal Imagining analysis was performed at the University of Chile imaging center. Quantitative analysis of dentritic spine length, size distribution for dendritic spine heads and morphology of the hippocampal neurons from WT control and Fmr1 KO mice was performed after 17 hour treatment with 20 μM tetracycline compounds or with PBS control.

[3] = biological target: T1, recombinant human matrix metalloproteinase-9 (MMP-9) (Homo sapiens, UniProt P14780); assay: MMP-9 enzyme activity assay (cell-free); format: biochemical
T1 construct: an aliquot of active recombinant human matrix metalloproteinase-9 (MMP-9)(CalBioChem) was added; purchased CalBioChem
T1 sequence (P14780 107-707 limits assumed): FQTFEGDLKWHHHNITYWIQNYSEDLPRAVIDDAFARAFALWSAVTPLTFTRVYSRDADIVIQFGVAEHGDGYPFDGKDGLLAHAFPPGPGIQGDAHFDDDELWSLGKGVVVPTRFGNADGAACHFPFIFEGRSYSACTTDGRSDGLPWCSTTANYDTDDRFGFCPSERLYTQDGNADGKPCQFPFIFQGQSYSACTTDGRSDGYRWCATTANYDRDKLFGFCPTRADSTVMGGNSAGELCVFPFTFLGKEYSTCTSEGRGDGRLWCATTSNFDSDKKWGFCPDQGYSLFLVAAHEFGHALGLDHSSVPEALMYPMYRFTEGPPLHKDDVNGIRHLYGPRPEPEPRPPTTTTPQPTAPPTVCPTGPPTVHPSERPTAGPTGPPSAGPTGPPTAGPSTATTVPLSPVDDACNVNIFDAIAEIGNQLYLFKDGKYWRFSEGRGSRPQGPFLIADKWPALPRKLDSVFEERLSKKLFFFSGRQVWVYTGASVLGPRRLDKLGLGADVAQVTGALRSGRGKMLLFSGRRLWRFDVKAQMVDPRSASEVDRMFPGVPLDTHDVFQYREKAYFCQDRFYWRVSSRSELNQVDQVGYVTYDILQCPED
Protocol: (§1) Compound 1 was tested to determine specific anti-inflammatory characteristics. In vitro assays to assess the inhibition of substrate cleavage by matrix metalloproteinase 9 (MMP-9) and the inhibition of TNFα production by lipopolysaccharide (LPS)-activated macrophages were performed. MMP-9 activity was determined by fluorescence after incubation of recombinant MMP-9 with fluorescein-conjugated DQ gelatin for 90 min. TNFα production was determined by incubation of 10 ng/ml LPS with RAW264.7 macrophage cells for 24 h, followed by quantitation of TNFα in culture supernatant by ELISA.
This assay was designed to measure the degradation of substrate by purified enzyme. To a solution containing 2.5 μg/ml fluorescein-conjugated DQ gelatin (Invitrogen) in buffer (50 mM Tris-HCl, 150 mM NaCl, 5 mM CaCl2, 0.2 mM sodium azide, pH 7.6), tetracycline compounds were added at final concentrations ranging from 100 to 1 μM. Subsequently, an aliquot of active recombinant human matrix metalloproteinase-9 (MMP-9)(CalBioChem) was added to a final concentration of 0.05 μg/ml. The total volume of the reaction mixture was 200 μL and samples were contained in 96-well black plates (Corning). The mixture was incubated at room temperature in the dark for 85 min, after which the fluorescence was measured using a microplate reader. Samples containing no MMP-9 enzyme were used as negative controls and samples with enzyme and without compound were positive controls.

[4] = tested on: LPS-induced TNFα production by RAW 264.7 macrophages; assay: TNFα production assay, LPS-activated RAW 264.7 macrophages; format: cell-based; settings: Mus musculus, RAW264.7
Protocol: as §1
The RAW 264.7 mouse macrophage cell line was grown to confluence in DMEM medium containing 10% fetal bovine serum (FBS). Cells were harvested into single-cell suspensions, seeded into 96-well plates at 1-2×10^5 cells/well (200 μL volume) and incubated (5% CO2, 37° C.) overnight. Compounds were added to the cells at final concentrations ranging from 50 to 1 μM and pre-incubated for 30 min. Lipopolysaccharide (LPS) was added to the cells at a final concentration of 10 ng/ml. After incubation for 20 hr, culture supernatants were harvested and transferred to a new 96-well plate. Levels of LPS-induced TNFα in the supernatants were quantified by ELISA (R & D Systems) with supernatants from unstimulated cells serving as a negative control.

[5] = Lateral Corpus Callosum, Week 4, 25 mg/kg/d i.p.
[6] = Lateral Corpus Callosum, Week 5, 25 mg/kg/d i.p.
[7] = Medial Corpus Callosum, Week 3, 25 mg/kg/d i.p.
[8] = Medial Corpus Callosum, Week 4, 25 mg/kg/d i.p.
[9] = Medial Corpus Callosum, Week 5, 25 mg/kg/d i.p.
[10] = Table 4, unit inferred, read-out: MMP-9 activity (cell-free)
[11] = Table 11, read-out: MMP-9 Activity (cell-free) IC50
[12] = 10 ng/ml LPS, 20 hr, read-out: TNFα Production (RAW264.7) IC50
[13] = Table 4, unit inferred, read-out: TNFα production (RAW264.7)

SMILES | % Inhibition Demyelination [1, 5] | % Inhibition Demyelination [1, 6] [%] | % Inhibition Axon Loss [1, 7] | % Inhibition Demyelination [1, 7] [%] | % Inhibition Axon Loss [1, 8] [%] | % Inhibition Demyelination [1, 8] [%] | % Inhibition Axon Loss [1, 9] [%] | % Inhibition Demyelination [1, 9] [%] | Spine number [2] | IC50 [3, 10] [µM] | IC50 [3, 11] [µM] | IC50 [4, 12] [µM] | IC50 [4, 13] [µM] | % Inhibition Demyelination ([1]; Lateral Corpus Callosum, Week 4, 25 mg/kg/d i.p., listed as minocycline) [%]
CCc1cc(N(C)C)c2c(c1O)C(=O)C1=C(O)[C@]3(O)C(=O)C(C(N)=O)=C(O)[C@@H](N(C)C)[C@@H]3C[C@@H]1C2 [Compound 1] | 62% | 29 | 62% and 66* % | 70 | 41 | 13 | 3 | −11 | 0.28±0.05 | 29 | 32.7 | 10.9 ± 1.6 | 10.9 ± 1.6 | 
CN(C)c1ccc(O)c2c1C[C@H]1C[C@H]3[C@H](N(C)C)C(O)=C(C(N)=O)C(=O)[C@@]3(O)C(O)=C1C2=O [Minocycline, minocycline, reference compound] | 63* % | 25 | 29% | 31 | 30 | 17 | −10 | 12 |  | 43.2 | 43.2 | 47 | 47 | 63
